Measured values as given in article PMC10011573, “Development of novel broad-spectrum antimicrobial lipopeptides derived from plantaricin NC8 β” (Scientific Reports, 2023).
Non-standard residues stand in square brackets, D forms with d. Residues, ends and D or L forms follow the SMILES beside them. *: point of attachment. Heptanoyl = CCCCCCC(=O)*; Hexanoyl = CCCCCC(=O)*

How the values were obtained:
human erythrocytes = experiment: Hemolytic activity; assay type: cell-based; conditions: 15% suspension in PBS, 1 h, 37 °C, absorbance 540 nm, highest tested concentration 100 µM
Protocol: The hemolytic activity of the lipopeptides was investigated by collecting blood from healthy volunteers in heparinized vacutainers. Briefly, the blood was centrifuged at 600 × g for 5 min and the erythrocyte pellet was washed three times in PBS. The cells were then suspended in PBS and added to 96-well plates (15% erythrocyte suspension/well), containing the lipopeptides with two-fold serial dilution. The plates were incubated for 1 h at 37 °C followed by centrifugation for 5 min at 900×g and absorbance measurement of the supernatants at 540 nm. Hemolytic activity (%) was calculated by subtracting the negative control from all values and normalization against the positive control (0.5% Triton X-100), that was set to 100%. All experiments, each in duplicate, were repeated three times.

[1] = Carboxyfluorescein release assay, mammalian liposome model; assay type: biochemical; conditions: 65:5:30 POPC:POPS:Chol. liposomes, 25 µM lipid, 10 mM PBS pH 7.4, 10^–5–10^2 µM peptide, 60 min, fluorescence, Hill fit, n = 3; read-out: EC50 Mammalial (concentration that triggers 50% CF release)
Protocol: (§1) Liposomes were prepared by thin-film hydration method. Lipids stock solutions (10 mg/ml in chloroform, Avanti Polar Lipids, Inc., Alabaster, United States) of the lipids 1-palmitoyl-2-oleoyl-sn-glycero-3-phosphocholine (POPC), 1-palmitoyl-2-oleoyl-sn-glycero-3-phospho-L-serine (POPS), 1-Hexadecanoyl-2-(9Z-Octadecenoyl)-sn-Glycero-3-Phosphoglycerol (POPG) and Cholesterol (Chol) were employed. Bacterial liposomes were prepared with a 75:25 ratio of POPC:POPG and mammalian liposomes were prepared with a 65:5:30 ratio of POPC:POPS:Chol. Lipid solutions were thoroughly homogenised, and the solvent was evaporated with the use of a dry N2 steam to yield a lipid cake. […] The lipid film was subsequently hydrated with a 5(6)-CF solution (50 mM CF, 10 mM PBS, 90 mM NaCl, pH 7.4). Following a 10 min incubation on orbital shaker (50 min^−1), the solution was vortexed for 60 s on medium speed. A mini extruder (Avanti Polar Lipids, Inc., United States) was employed and 21 extrusions were performed through a 0.1 µm filter membrane (Nuclepore track-etched hydrophilic membrane, Cytiva, Whatman, MA, United States), resulting in monodispersed unilamellar liposomes. Directly before use the liposomes were purified from unencapsulated CF by filtration through a gel filtration column (PD Minitrap G-25 column, Cytiva, United States), against PBS buffer (10 mM, pH 7.4).
(§2) Peptide and lipopeptide activity towards liposome models were evaluated using a carboxyfluorescein (CF) release assay. Liposomes were diluted in PBS (10 mM, pH 7.4) to a final lipid concentration of 25 µM and incubated with peptides (10^–5–10^2 µM) in a 96-well plate (n = 3). CF release was monitored using an Infinite M1000 PRO plate reader every 2.5 min for 1 h. Full (100%) CF release was obtained by addition of 1% Triton X-100 solution followed by 10 min incubation. CF release percentage was evaluated according to the formula 100 * (F − F0)/(FT − F0), where F indicates the instantaneous fluorescence, FT the total fluorescence and F0 the background fluorescence prior to peptide addition. Data were fitted to a Hill-1 curve using MATLAB R2019a (The MathWorks Inc., Natick, Massachusetts, United States) and the half maximum effective concentration (EC50) was extracted.

[2] = Carboxyfluorescein release assay, bacterial liposome model; assay type: biochemical; conditions: 75:25 POPC:POPG liposomes, 25 µM lipid, 10 mM PBS pH 7.4, 10^–5–10^2 µM peptide, 60 min, fluorescence, Hill fit, n = 3; read-out: EC50 Bacterial (concentration that triggers 50% CF release)
Protocol: as §1, §2

[3] = test system: S. aureus (ATCC 29213, MSSA); conditions: ATCC 29213, 20 h
Protocol: (§3) S. aureus (ATCC 29213, MSSA, ATCC, Manassas, VA), E. coli (K-12 MG1655) and clinical isolates of S. aureus, E. coli, E. faecium, K. pneumoniae, A. baumannii, P. aeruginosa and E. cloacae obtained from the Department of Laboratory Medicine at Örebro University Hospital were streaked on Luria–Bertani (LB) agar plates and incubated at 37 °C overnight. Single colonies were inoculated into 5 ml of LB broth and incubated on a shaker (400 rpm) at 37 °C overnight. The bacterial concentrations were determined by viable count and were adjusted to correlate with approximately 10^9 CFU/ml.
(§4) The broth microdilution method was used to determine minimal inhibitory concentration (MIC) and minimal bactericidal concentration (MBC), in accordance with the EUCAST standards for the broth microdilution method. Two-fold serial dilutions of the lipopeptides were used, and the final concentrations ranged from 0.19 to 100 µM. In brief, two-fold serial dilutions of the lipopeptides were performed in a 96-well plate in PBS, with a final volume of 100 µl per well, after which 100 µl of LB-broth media containing approximately 5 × 10^5 CFU/ml of bacteria was added to each well. The plate was then incubated for 20 h in 37 °C on a shaker (400 rpm). The effect of lipopeptide-antibiotic combinations was investigated by performing checkerboard assays. The assays were performed in accordance with the MIC and MBC tests conducted above, but with horizontal and longitudinal two-fold serial dilutions of the tested compounds. […] The fractional inhibitory concentration (FIC) and fractional bactericidal concentration (FBC) were calculated by the equation (MIC or MBC of peptide in combination/MIC or MBC of peptide alone) + (MIC or MBC of antibiotic in combination/MIC or MBC of antibiotic alone). Synergy was defined as FIC/FBC ≤ 0.5, additive when 0.5 < FIC/FBC ≤ 1, indifferent when 1 < FIC/FBC < 2 and antagonistic when FIC/FBC ≥ 2. All experiments were repeated at least three times.

E. coli (K-12 MG1655) [4] = conditions: Table 3; K-12 MG1655; broth microdilution, 50:50 PBS/LB-broth, 200 µL, 20 h, 37 °C
Protocol: as §3, §4

E. coli (K-12 MG1655) [5] = assay type: cell-based; conditions: Table 6; K-12 MG1655; checkerboard assay, 50:50 PBS/LB-broth, 200 µL

Row | Compound | HC, hemolytic concentration at 5% hemolytic activity (human erythrocytes) [µM] | EC50 [1] [nM] | EC50 [2] [nM] | S. aureus MBC [3] [µM] | S. aureus MIC [3] [µM] | E. coli MBC (E. coli (K-12 MG1655) [4]) [µM] | E. coli MIC (E. coli (K-12 MG1655) [4]) [µM] | E. coli MBC, antibiotic alone (E. coli (K-12 MG1655) [5]) [µg/mL] | E. coli MIC, antibiotic alone (E. coli (K-12 MG1655) [5]) [µg/mL]
1 | CCCCCCC(=O)N[C@H](CC(C)C)C(=O)NCC(=O)N[C@H](CC(C)C)C(=O)N[C@H](CCCCN)C(=O)N[C@H](CC(C)C)C(=O)N[C@H](CC(C)C)C(=O)N[C@H](Cc1c[nH]c2ccccc12)C(=O)N[C@H](CO)C(=O)N[C@H](C)C(=O)N[C@H](Cc1ccc(O)cc1)C(=O)N[C@H](CCCCN)C(=O)N[C@H](Cc1c[nH]cn1)C(=O)N[C@H](CCCNC(=N)N)C(=O)N[C@H](CCCCN)C(=O)N[C@@H](C(=O)N[C@H](CC(C)C)C(N)=O)[C@H](C)O [D-6-C7-Leu] (Heptanoyl-[dL]G[dL][dK][dL][dL][dW][dS][dA][dY][dK][dH][dR][dK][dT][dL]-NH2) | 35 | 1020 | 130 | 1.5 | 1.5 | 3.1 | 3.1 |  | 
2 | CCCCCC(=O)N[C@H](CC(C)C)C(=O)NCC(=O)N[C@@H](C(=O)N[C@H](CCCCN)C(=O)N[C@@H](C(=O)N[C@H](CC(C)C)C(=O)N[C@H](Cc1c[nH]c2ccccc12)C(=O)N[C@H](CO)C(=O)N[C@H](C)C(=O)N[C@H](Cc1ccc(O)cc1)C(=O)N[C@H](CCCCN)C(=O)N[C@H](Cc1c[nH]cn1)C(=O)N[C@H](CCCNC(=N)N)C(=O)N[C@H](CCCCN)C(=O)N[C@@H](C(=O)N[C@@H](C(N)=O)[C@H](C)CC)[C@H](C)O)[C@H](C)CC)[C@H](C)CC [D-6-C6] (Hexanoyl-[dL]G[dI][dK][dI][dL][dW][dS][dA][dY][dK][dH][dR][dK][dT][dI]-NH2) | > 100 | 4990 | 130 | 3.1 | 3.1 | 3.1 | 3.1 |  | 
3 | CNC(C)C1CCC(N)C(OC2C(N)CC(N)C(OC3OCC(C)(O)C(NC)C3O)C2O)O1 (stereo not shown) [Gentamicin] |  |  |  |  |  |  |  | 1 | 1
4 | CCCCCC(=O)N[C@H](CC(C)C)C(=O)NCC(=O)N[C@H](CC(C)C)C(=O)N[C@H](CCCCN)C(=O)N[C@H](CC(C)C)C(=O)N[C@H](CC(C)C)C(=O)N[C@H](Cc1c[nH]c2ccccc12)C(=O)N[C@H](CO)C(=O)N[C@H](C)C(=O)N[C@H](Cc1ccc(O)cc1)C(=O)N[C@H](CCCCN)C(=O)N[C@H](Cc1c[nH]cn1)C(=O)N[C@H](CCCNC(=N)N)C(=O)N[C@H](CCCCN)C(=O)N[C@@H](C(=O)N[C@H](CC(C)C)C(N)=O)[C@H](C)O [D-6-C6-Leu] (Hexanoyl-[dL]G[dL][dK][dL][dL][dW][dS][dA][dY][dK][dH][dR][dK][dT][dL]-NH2) | 65 | 1220 | 130 | 1.5 | 1.5 | 3.1 | 3.1 |  | 
5 | CO/N=C(\C(=O)N[C@@H]1C(=O)N2C(C(=O)O)=C(COC(C)=O)CS[C@H]12)c1csc(N)n1 [Cefotaxim] |  |  |  |  |  |  |  | 0.5 | 0.5
